{"source": "patent US10570412B2", "about": "“Method of increasing resistance against soybean rust in transgenic plants by increasing the scopoletin content” (BASF PLANT SCIENCE COMPANY GMBH, priority 2015, dated 2020)", "key": {"Arabidopsis": {"tested_on": "Arabidopsis", "assay": "Phytotoxic effect of scopoletin in Arabidopsis", "type": "in vivo", "conditions": "Arabidopsis plants treated with 1 mM scopoletin", "description": "For pre-treatment experiments Arabidopsis plants were sprayed with—1 mM scopoletin (solved in H2O, 0.01% Tween-20); incubated for 6 h at short day conditions and subsequently inoculated with 1 mg/ml P. pachyrhizi uredospores. For co-treatment experiments spores of Phakopsora pachyrhizi were solved in 0.01% Tween-20 supplemented with 1 mM scopoletin. Following inoculation plants were covered with moistened plastic domes to ensure high humidity and incubated at short day conditions (see above). 24 h later plastic domes were removed and plants incubated at the same conditions for another 24 h. Leaves were harvested 2 dpi and destained on tissue soaked with a saturated (2.5 g/ml) chloralhydrate solution. Germination and penetration on destained leaves was determined by quantitative microscopic analysis."}, "Phakopsora pachyrhizi [1]": {"tested_on": "Phakopsora pachyrhizi", "assay": "Soybean rust diseased leaf area on scopoletin-treated soybean plants", "type": "in vivo, Phakopsora pachyrhizi on soybean"}, "Fusarium graminearum": {"tested_on": "Fusarium graminearum", "type": "cell-based", "conditions": "1 mM scopoletin in PDA, compared with PDA+methanol"}, "soybean": {"tested_on": "soybean", "assay": "Phytotoxic effect of scopoletin in soybean", "conditions": "soybean plants treated with scopoletin"}, "Phakopsora pachyrhizi [2]": {"tested_on": "Phakopsora pachyrhizi", "assay": "In vivo spore germination test on Arabidopsis leaves", "parameters": "species or system Phakopsora pachyrhizi on Arabidopsis thaliana", "conditions": "1 mM scopoletin, assessed 48 h after infection"}, "Phakopsora pachyrhizi [3]": {"tested_on": "Phakopsora pachyrhizi", "assay": "In vitro germination test of Phakopsora pachyrhizi spores on glass slides", "type": "cell-based", "conditions": "6 h"}}, "note": "“Also recorded” adds a separate entry of the source.", "data": [{"smiles": "COc1cc2ccc(=O)oc2cc1O", "note": "[scopoletin]", "values": [{"measurement": "phytotoxic effect leading to pleiotropic effects", "setting": "Arabidopsis", "result": "never observed any phytotoxic effect"}, {"measurement": "diseased leaf area caused by Phakopsora pachyrhizi infection", "setting": "Phakopsora pachyrhizi [1]; soy plants, 1 mM scopoletin, co-application, primary, first and second trifoliate leaves, 12 dpi", "result": "drastically reduced formation of infected leaf area; also recorded: strongly reduced"}, {"measurement": "diseased leaf area caused by Phakopsora pachyrhizi infection", "setting": "Phakopsora pachyrhizi [1]; soy plants, 1 mM scopoletin, pre-treatment 6 h before inoculation, primary, first and second trifoliate leaves, 12 dpi", "result": "drastically reduced formation of infected leaf area; also recorded: strongly reduced"}, {"measurement": "diseased leaf area caused by Phakopsora pachyrhizi infection", "setting": "Phakopsora pachyrhizi [1]; soybean leaves, co-application of 10 μM, 100 μM or 1 mM scopoletin, dose dependent", "result": "strongly reduced in a dose dependent manner"}, {"measurement": "reduction of the Fusarium graminearum growth rate per day", "setting": "Fusarium graminearum", "result": 61, "unit": "%"}, {"measurement": "phytotoxic effect leading to pleiotropic effects", "setting": "soybean", "result": "never observed"}, {"measurement": "germination of Phakopsora pachyrhizi spores on Arabidopsis leaves", "setting": "Phakopsora pachyrhizi [2]; co-application with inoculation", "result": "drastically reduced formation of germinated spores"}, {"measurement": "germination of Phakopsora pachyrhizi spores on Arabidopsis leaves", "setting": "Phakopsora pachyrhizi [2]; co-application with inoculation, listed as Scopoletin", "result": "strongly inhibited"}, {"measurement": "germination of Phakopsora pachyrhizi spores on Arabidopsis leaves", "setting": "Phakopsora pachyrhizi [2]; pre-treatment 6 h before inoculation", "result": "drastically reduced formation of germinated spores"}, {"measurement": "germination of Phakopsora pachyrhizi spores on Arabidopsis leaves", "setting": "Phakopsora pachyrhizi [2]; pre-treatment 6 h before inoculation, listed as Scopoletin", "result": "strongly inhibited"}, {"measurement": "germination and appressorium formation of Phakopsora pachyrhizi spores", "setting": "Phakopsora pachyrhizi [3]; 10 μM, 100 μM, 500 μM and 1 mM scopoletin in water, glass slides, dose dependent", "result": "decreases the germination and appressoria formation in a dose dependent manner; also recorded: strongly inhibited"}, {"measurement": "spore germination in-vitro", "setting": "Phakopsora pachyrhizi [3]; 1 mM scopoletin", "result": "completely abolishes spore germination"}]}]}
